The results in this text go back to ChEMBL document CHEMBL1157396, “Dihydroagarofuranoid sesquiterpenes, a lignan derivative, a benzenoid, and antitubercular constituents from the stem of Microtropis japonica” (2008).

Values after ≈ are worked out from the molar mass of the structure shown.

Usually MIC stands for the lowest concentration found to suppress growth. Lower therefore signals inhibition by little substance.

For the assay, the system named is Mycobacterium tuberculosis. The assay is described as follows: Antitubercular activity against Mycobacterium tuberculosis H37Rv after 2 weeks by agar dilution method. Type of assay: functional. As to conditions: 336 h.
Consider `CC[C@H](CC[C@@H](C)[C@H]1CC[C@H]2[C@@H]3C(=O)C=C4C[C@@H](O)CC[C@]4(C)[C@H]3CC[C@]12C)C(C)C`, for which the MIC was determined as 128 µM (≈ 54.9 µg/mL).

`COc1cc(/C=C/C(=O)OC[C@H](Cc2ccc(O)c(OC)c2)[C@H](COC(=O)/C=C/c2ccc(O)c(OC)c2)Cc2ccc(O)c(OC)c2)ccc1O` had an MIC of 126 µM (≈ 90.1 µg/mL).

On to `CC(=O)O[C@H]1C[C@@H](COC(=O)c2ccccc2)[C@]23OC(C)(C)[C@H](C[C@H](OC(=O)c4ccccc4)[C@]2(C)[C@H]1OC(C)=O)[C@H]3OC(=O)c1ccccc1`, for which it took 95 µM (≈ 66.4 µg/mL) to inhibit growth (MIC).

Consider `CC(=O)OC[C@]12[C@@H](OC(=O)c3ccccc3)C[C@@H]3[C@@H](OC(=O)c4ccccc4)[C@]1(OC3(C)C)[C@H](C)C[C@H](OC(=O)c1ccccc1)[C@@H]2OC(C)=O`, for which the lowest concentration to inhibit growth (MIC) was 39.6 µM (≈ 27.7 µg/mL).

In turn, `COc1cc(/C=C\C(=O)OC[C@H](Cc2ccc(O)c(OC)c2)[C@H](COC(=O)/C=C\c2ccc(O)c(OC)c2)Cc2ccc(O)c(OC)c2)ccc1O` registered an MIC of 122 µM (≈ 87.2 µg/mL).

The molecule `COc1cc(C(=O)CCO)ccc1O` displayed an MIC of 153 µM (≈ 30 µg/mL). This MIC and that of the molecule before are within 1.5-fold of each other.

In turn, `CC(=O)O[C@H]1C[C@@H](C)[C@]23OC(C)(C)[C@H]([C@H](OC(=O)c4ccccc4)[C@H](OC(=O)c4ccccc4)[C@]2(COC(=O)c2ccccc2)[C@H]1OC(C)=O)[C@H]3OC(C)=O` displayed an MIC of 79.3 µM (≈ 60 µg/mL).

`COc1cc(C(=O)C(CO)c2cc(OC)c(O)c(OC)c2)ccc1O` (stereo not drawn) [5-METHOXYEVOFOLIN B] had an MIC of 215 µM (≈ 74.9 µg/mL).

For `CC[C@H](CC[C@@H](C)[C@H]1CC[C@H]2[C@@H]3CC=C4C[C@@H](O)CC[C@]4(C)[C@H]3CC[C@]12C)C(C)C` [BETA-SITOSTEROL], the MIC is greater than 400 µM.

`CC(=O)OC[C@]12[C@@H](OC(=O)c3ccccc3)C[C@@H]3[C@@H](OC(C)=O)[C@]1(OC3(C)C)[C@H](C)C[C@H](OC(C)=O)[C@@H]2O` [CELAHIN C] came in with an MIC of 31.3 µM (≈ 16.7 µg/mL).

`COc1cc(/C=C/C=O)ccc1O` [CONIFERYL ALDEHYDE] showed a minimum inhibitory concentration (MIC) greater than 400 µM.

Molecule `CC[C@@H](CO)NCCN[C@@H](CC)CO` [ETHAMBUTOL] came in with an MIC of 30.6 µM (≈ 6.25 µg/mL).

`CCOc1cc(C=O)ccc1O` [ETHYL VANILLIN]: the MIC is greater than 400 µM.

Turning to `COc1cc(C(=O)C(CO)c2ccc(O)c(OC)c2)ccc1O` (stereo not drawn) [EVOFOLIN B], the MIC is 235 µM (≈ 74.8 µg/mL).

`CC(=O)O[C@@H]1[C@H]2C[C@H](OC(=O)c3ccccc3)[C@]3(COC(=O)c4ccccc4)[C@@H](OC(C)=O)[C@@H](OC(=O)c4ccccc4)C[C@@H](C)[C@@]13OC2(C)C` [FOKIENAGAROFURAN A]: it took 85.9 µM (≈ 60 µg/mL) to inhibit growth (MIC).

Turning to `CC(=O)O[C@H]1[C@@H](OC(=O)c2ccccc2)C[C@@H](C)[C@]23OC(C)(C)[C@H](C[C@H](OC(=O)c4ccccc4)[C@]12COC(=O)c1ccccc1)[C@H]3OC(=O)c1ccccc1` [FOKIENAGAROFURAN D], the MIC is 105 µM (≈ 79.9 µg/mL).

`CN1CCCC1=O` [METHYLPYRROLIDONE] yielded an MIC greater than 400 µM.

`COc1cc(O)c2c(c1)O[C@H](c1ccc(O)cc1)CC2=O` [SAKURANETIN] had an MIC of 209 µM (≈ 59.8 µg/mL).

`CC(=O)OC[C@]12[C@@H](OC(=O)c3ccccc3)C[C@@H]3[C@@H](OC(C)=O)[C@]1(OC3(C)C)[C@H](C)C[C@H](O)[C@@H]2OC(C)=O` [SALASOL A] displayed an MIC of 28.2 µM (≈ 15 µg/mL). This MIC is about 7.4-fold lower than that of the molecule before.

In turn, `COc1cc2ccc(=O)oc2cc1OC` [SCOPARONE] yielded a minimum inhibitory concentration (MIC) of 388 µM (≈ 80 µg/mL).

Molecule `COc1cc(C=O)cc(OC)c1O` [SYRINGALDEHYDE] returned an MIC greater than 400 µM.

Consider `COc1cc(C(=O)O)ccc1O` [VANILLIC ACID], for which inhibition of growth (MIC) required 238 µM (≈ 40 µg/mL).

In turn, `COc1cc(C=O)ccc1O` [VANILLIN] had an MIC greater than 400 µM.
